From the NIST ThermoML archive (doi:10.1021/je4009415)
Numbers after ± are expanded uncertainties.

Experiment: xn = mol fraction of the nth substance listed
Conditions: Liquid, Vibrating tube method

In the case of `CCOC(=O)CC` [ethyl propanoate] + CCCCCCC, the mass density (288.15 K, x1 = 0.0524) is reported as 695.91 ± 0.26 kg/m3, the mass density (288.15 K, x1 = 0.0988) is reported as 703.07 ± 0.27 kg/m3 and the mass density (288.15 K, x1 = 0.1463) is reported as 710.63 ± 0.28 kg/m3. It also gave a mass density (288.15 K, x1 = 0.1941) of 718.6 ± 0.3 kg/m3, a mass density (288.15 K, x1 = 0.2514) of 728.31 ± 0.31 kg/m3 and a mass density (288.15 K, x1 = 0.3018) of 737.02 ± 0.33 kg/m3. For the same compound, the mass density (288.15 K, x1 = 0.3473) was 745.24 ± 0.34 kg/m3, the mass density (288.15 K, x1 = 0.4004) was 755.32 ± 0.36 kg/m3 and the mass density (288.15 K, x1 = 0.4483) was 764.49 ± 0.38 kg/m3. For the same compound, the mass density (288.15 K, x1 = 0.5023) was 775.33 ± 0.4 kg/m3, the mass density (288.15 K, x1 = 0.5493) was 785.04 ± 0.42 kg/m3 and the mass density (288.15 K, x1 = 0.6523) was 807.55 ± 0.47 kg/m3. The mass density (288.15 K, x1 = 0.7155) was 821.91 ± 0.51 kg/m3, the mass density (288.15 K, x1 = 0.7532) was 830.95 ± 0.53 kg/m3 and the mass density (288.15 K, x1 = 0.7965) was 841.54 ± 0.56 kg/m3. For the same compound, the mass density (288.15 K, x1 = 0.8566) was 856.59 ± 0.61 kg/m3, the mass density (288.15 K, x1 = 0.9037) was 868.82 ± 0.64 kg/m3 and the mass density (288.15 K, x1 = 0.9502) was 881.54 ± 0.68 kg/m3. For the same compound, the mass density (288.15 K, x1 = 1) was 895.58 ± 0.72 kg/m3, the mass density (298.15 K, x1 = 0.0502) was 687.02 ± 0.26 kg/m3 and the mass density (298.15 K, x1 = 0.0966) was 693.85 ± 0.27 kg/m3. The mass density (298.15 K, x1 = 0.1618) was 704.16 ± 0.29 kg/m3, the mass density (298.15 K, x1 = 0.24) was 717.15 ± 0.31 kg/m3 and the mass density (298.15 K, x1 = 0.3102) was 729.24 ± 0.33 kg/m3. The mass density (298.15 K, x1 = 0.401) was 745.76 ± 0.36 kg/m3, the mass density (298.15 K, x1 = 0.4502) was 755.12 ± 0.38 kg/m3 and the mass density (298.15 K, x1 = 0.5047) was 765.87 ± 0.4 kg/m3. For the same compound, the mass density (298.15 K, x1 = 0.598) was 785.24 ± 0.44 kg/m3, the mass density (298.15 K, x1 = 0.6478) was 796.11 ± 0.46 kg/m3 and the mass density (298.15 K, x1 = 0.6968) was 807.1 ± 0.49 kg/m3. For the same compound, the mass density (298.15 K, x1 = 0.7456) was 818.46 ± 0.52 kg/m3, the mass density (298.15 K, x1 = 0.7933) was 829.93 ± 0.55 kg/m3 and the mass density (298.15 K, x1 = 0.8547) was 845.07 ± 0.6 kg/m3. It also gave a mass density (298.15 K, x1 = 0.9029) of 857.64 ± 0.63 kg/m3, a mass density (298.15 K, x1 = 0.952) of 870.77 ± 0.67 kg/m3 and a mass density (298.15 K, x1 = 1) of 884.15 ± 0.71 kg/m3. The mass density (308.15 K, x1 = 0.0489) was 677.99 ± 0.26 kg/m3, the mass density (308.15 K, x1 = 0.0972) was 685.13 ± 0.27 kg/m3 and the mass density (308.15 K, x1 = 0.1622) was 695.08 ± 0.29 kg/m3. The mass density (308.15 K, x1 = 0.2109) was 702.86 ± 0.3 kg/m3, the mass density (308.15 K, x1 = 0.2409) was 707.93 ± 0.31 kg/m3 and the mass density (308.15 K, x1 = 0.3084) was 719.36 ± 0.33 kg/m3. It also gave a mass density (308.15 K, x1 = 0.352) of 727.08 ± 0.34 kg/m3, a mass density (308.15 K, x1 = 0.4029) of 736.28 ± 0.36 kg/m3 and a mass density (308.15 K, x1 = 0.44) of 743.31 ± 0.37 kg/m3. It also gave a mass density (308.15 K, x1 = 0.5033) of 755.53 ± 0.39 kg/m3, a mass density (308.15 K, x1 = 0.5515) of 765.29 ± 0.41 kg/m3 and a mass density (308.15 K, x1 = 0.6049) of 776.34 ± 0.44 kg/m3. It also gave a mass density (308.15 K, x1 = 0.6546) of 787.12 ± 0.46 kg/m3, a mass density (308.15 K, x1 = 0.6957) of 796.27 ± 0.49 kg/m3 and a mass density (308.15 K, x1 = 0.7472) of 808.1 ± 0.52 kg/m3. For the same compound, the mass density (308.15 K, x1 = 0.8001) was 820.72 ± 0.55 kg/m3, the mass density (308.15 K, x1 = 0.8549) was 834.09 ± 0.59 kg/m3 and the mass density (308.15 K, x1 = 0.8932) was 843.97 ± 0.62 kg/m3. For the same compound, the mass density (308.15 K, x1 = 0.949) was 858.62 ± 0.66 kg/m3, the mass density (308.15 K, x1 = 1) was 872.62 ± 0.7 kg/m3 and the mass density (318.15 K, x1 = 0.0535) was 669.87 ± 0.27 kg/m3. For the same compound, the mass density (318.15 K, x1 = 0.0979) was 676.31 ± 0.27 kg/m3, the mass density (318.15 K, x1 = 0.1459) was 683.47 ± 0.28 kg/m3 and the mass density (318.15 K, x1 = 0.2045) was 692.71 ± 0.3 kg/m3. The mass density (318.15 K, x1 = 0.262) was 702.04 ± 0.31 kg/m3, the mass density (318.15 K, x1 = 0.3009) was 708.59 ± 0.32 kg/m3 and the mass density (318.15 K, x1 = 0.3494) was 717.01 ± 0.34 kg/m3. It also gave a mass density (318.15 K, x1 = 0.4057) of 727.08 ± 0.35 kg/m3, a mass density (318.15 K, x1 = 0.4487) of 735.05 ± 0.37 kg/m3 and a mass density (318.15 K, x1 = 0.5052) of 745.9 ± 0.39 kg/m3. It also gave a mass density (318.15 K, x1 = 0.552) of 755.16 ± 0.41 kg/m3, a mass density (318.15 K, x1 = 0.5969) of 764.38 ± 0.43 kg/m3 and a mass density (318.15 K, x1 = 0.6529) of 776.27 ± 0.46 kg/m3. It also gave a mass density (318.15 K, x1 = 0.7022) of 787.15 ± 0.48 kg/m3, a mass density (318.15 K, x1 = 0.7467) of 797.21 ± 0.51 kg/m3 and a mass density (318.15 K, x1 = 0.7935) of 808.2 ± 0.54 kg/m3. It also gave a mass density (318.15 K, x1 = 0.8452) of 820.6 ± 0.57 kg/m3, a mass density (318.15 K, x1 = 0.8929) of 832.6 ± 0.61 kg/m3 and a mass density (318.15 K, x1 = 0.9484) of 847.05 ± 0.65 kg/m3. For the same compound, the mass density (318.15 K, x1 = 1) was 861.08 ± 0.68 kg/m3, the mass density (328.15 K, x1 = 0.0528) was 660.86 ± 0.27 kg/m3 and the mass density (328.15 K, x1 = 0.1065) was 668.58 ± 0.28 kg/m3. The mass density (328.15 K, x1 = 0.1619) was 676.84 ± 0.29 kg/m3, the mass density (328.15 K, x1 = 0.2123) was 684.53 ± 0.3 kg/m3 and the mass density (328.15 K, x1 = 0.2511) was 690.83 ± 0.31 kg/m3. For the same compound, the mass density (328.15 K, x1 = 0.3081) was 700.22 ± 0.32 kg/m3, the mass density (328.15 K, x1 = 0.3519) was 707.73 ± 0.34 kg/m3 and the mass density (328.15 K, x1 = 0.4084) was 717.71 ± 0.35 kg/m3. For the same compound, the mass density (328.15 K, x1 = 0.4478) was 724.83 ± 0.37 kg/m3, the mass density (328.15 K, x1 = 0.5074) was 736.13 ± 0.39 kg/m3 and the mass density (328.15 K, x1 = 0.5522) was 744.86 ± 0.41 kg/m3. The mass density (328.15 K, x1 = 0.6033) was 755.17 ± 0.43 kg/m3, the mass density (328.15 K, x1 = 0.6454) was 764.1 ± 0.45 kg/m3 and the mass density (328.15 K, x1 = 0.7023) was 776.34 ± 0.48 kg/m3. The mass density (328.15 K, x1 = 0.7443) was 785.77 ± 0.5 kg/m3, the mass density (328.15 K, x1 = 0.7989) was 798.4 ± 0.53 kg/m3 and the mass density (328.15 K, x1 = 0.8593) was 812.97 ± 0.57 kg/m3. The mass density (328.15 K, x1 = 0.8983) was 822.61 ± 0.6 kg/m3, the mass density (328.15 K, x1 = 0.9494) was 835.87 ± 0.64 kg/m3 and the mass density (328.15 K, x1 = 1) was 849.41 ± 0.67 kg/m3.
